US5646313A, “Amino acid derivatives, processes for their preparation and their therapeutic application” (Societe Civile Bioprojet, priority 1993, dated 1997)

Target: enkephalinase
Assay: in vitro assay of the enkephalinase-inhibitory activity (J. Pharmac. Exp. Ther., 1987, 243, 666)
Type: biochemical
Conditions: (E) isomer, read-out: (E) Isomer IC50
Description: An assay of the enkephalinase-inhibitory activity (J. Pharmac. Exp. Ther., 1987, 243, 666) of the compounds of formulae (Ia) and (Ib) was performed.

Row | SMILES | IC50 [nM]
1 | CC(CC(=O)O)NC(=O)/C(=C\c1ccccc1)CS (racemic) [Ex 12, 3-(RS)-N-(E)-[1-oxo-2-(mercaptomethyl)-3-phenylpropenyl]aminobutanoic acid] | 7
2 | CC(CNC(=O)/C(=C\c1ccccc1)CS)C(=O)O (racemic) [Ex 14] | 10
3 | O=C(O)CCNC(=O)/C(=C\c1ccccc1)CS [Ex 4, N-(E)-[1-oxo-2-(mercaptomethyl)-3-phenylpropenyl]-β-alanine] | 2.8
4 | O=C(O)CCCNC(=O)/C(=C\c1ccccc1)CS [Ex 16, 4-N-(E)-[1-oxo-2-(mercaptomethyl)-3-phenylpropenyl]aminobutanoic acid] | 6.4
5 | COc1ccc(/C=C(/CS)C(=O)NCCC(=O)O)cc1 [Ex 19, N-(E)-[1-oxo-2-(mercaptomethyl)-3-(4-methoxyphenyl)propenyl]-β-alanin] | 2.7
6 | O=C(O)CCNC(=O)/C(=C\c1ccc(C(F)(F)F)cc1)CS [Ex 22, N-(E)-[1-oxo-2-(mercaptomethyl)-3-(4-trifluoromethylphenyl)propenyl]-β-alanine] | 12.1
7 | O=C(O)CCNC(=O)/C(=C\c1ccc(-c2ccccc2)cc1)CS [Ex 25, N-(E)-[1-oxo-2-(mercaptomethyl)-3-(4-phenylphenyl)propenyl]-β-alanine] | 7.5
8 | CCOc1ccc(/C=C(/CS)C(=O)NCCC(=O)O)cc1 [Ex 28, N-(E)-[1-oxo-2-(mercaptomethyl)-3-(4-ethoxyphenyl)propenyl]-β-alanine] | 11.8
9 | O=C(O)CCNC(=O)/C(=C\c1cc(F)cc(F)c1)CS [Ex 33, N-(E)-[1-oxo-2-(mercaptomethyl)-3-(3,5-difluorophenyl)propenyl]-β-alanine] | 5.9
10 | O=C(O)CCNC(=O)/C(=C\c1ccc(Oc2ccccc2)cc1)CS [Ex 41, N-(E)-[1-oxo-2-(mercaptomethyl)-3-(4-phenoxyphenyl)propenyl]-β-alanine] | 5.8
11 | CC(=O)SC/C(=C/c1ccc2c(c1)OCO2)C(=O)NCCC(=O)OCc1ccccc1 [Ex 43, benzyl N-(E)-[1-oxo-2-(acetylthiomethyl)-3-(3,4-methylenedioxyphenyl)propenyl]-β-alaninate] | 19

Same assay, conditions: (Z) isomer, read-out: (Z) Isomer IC50

Row | SMILES | IC50 [nM]
12 | O=C(O)CCNC(=O)/C(=C/c1ccccc1)CS [Ex 38, N-(Z)-[1-oxo-2-(mercaptomethyl)-3-phenylpropenyl]-β-alanine] | 171
